Converted amounts (≈) assume the structure as drawn. Like-named read-outs stand apart in the source and are kept apart here. Marks after values point to notes of the source that are not given here.
What was measured:
[1] = test system: Pseudomonas aeruginosa CFA 24-1, clinical mucoid strain (R80); test: MIC assay, CAMHB with alginate oligomer, no visible growth; type: cell-based; details: Table 4, R80 non MDR (muc.)
[2] = test system: Pseudomonas aeruginosa ATCC 39324, mucoid type strain (R79); test: as above; type: cell-based; details: R79 non MDR (muc.)
[3] = test system: V10 (Egypt) Acinetobacter lwoffii; test: as above; type: cell-based; details: Table 5, V10 MDR Acin. lwoff
[4] = test system: Klebsiella pneumoniae KP05 506 from India (V3); test: as above; type: cell-based; details: Klebsiella pneumoniae, Table 4; V3 MDR (India); OligoCF-5/20 +10% G; read-out: MIC
V11 5702 (Wales) E. coli = test: as above; type: cell-based; details: Table 5, V11 MDR E.coli
V5 AIM-1 E. coli = test: as above; type: cell-based; details: Table 4, V5 MDR E. coli
From the text: (§1) The study described in Example 1 was repeated with the following strains of bacteria and antibiotics as detailed in Tables 4, 5 and 6.

[5] = test system: Pseudomonas aeruginosa MDR R22 from China (V1); test: as above; type: cell-based; details: Table 4, V1 MDR (China)
From the text: as §1

[6] = test system: V23 1322 Burkholderia cepacia; test: as above; type: cell-based
[7] = test system: PA01 Pseudomonas aeruginosa ATCC 15692; test: MIC assay, two-fold antibiotic dilutions in CAMHB with alginate oligomer, no visible growth; type: cell-based; details: PA01 non MDR
[8] = test system: Pseudomonas aeruginosa MDR 301 from Poland (V2); test: MIC assay, CAMHB with alginate oligomer, no visible growth; type: cell-based; details: Table 4, V2 MDR (Pol.)
[9] = test system: V12 5725 (Wales) Klebsiella pneumoniae; test: as above; type: cell-based; details: Table 5, V12 MDR Kleb pneu
[10] = test system: Acinetobacter baumannii MDR ACB from Libya (V4); test: as above; type: cell-based; details: Table 4, V4 MDR (Libya)
From the text: as §1
The study described in Example 1 was repeated with the following strains of Acinetobacter baumannii, antibiotics and M-block alginate oligomer in place of OligoG CF-5/20 as detailed in Table 7. The M-block oligomer is 100% M with a DPn of 15 to 18,

[11] = test system: V9 (Egypt) Acinetobacter baumannii; test: as above; type: cell-based; details: Table 5, V9 MDR Acin. baum
V22 6056 Acinetobacter = test: as above; type: cell-based, Acinetobacter lwoffii; details: Table 5, V22 MDR Acin. lwoff
[12] = Pseudomonas aeruginosa, OligoCF-5/20 0G, read-out: MIC
[13] = Pseudomonas aeruginosa, OligoCF-5/20 +2% G, read-out: MIC
[14] = Pseudomonas aeruginosa, OligoCF-5/20 +10% G, read-out: MIC
[15] = Pseudomonas aeruginosa, OligoCF-5/20 +6% G, read-out: MIC
[16] = Table 5, V23 MDR Burk cep, OligoCF-5/20 +6% G
[17] = Table 5, V23 MDR Burk cep, OligoCF-5/20 +10% G
[18] = Acinetobacter baumannii, OligoCF-5/20 0G, read-out: MIC

Compound: CC[C@H]1OC(=O)[C@H](C)[C@@H](O[C@H]2C[C@@](C)(OC)[C@@H](O)[C@H](C)O2)[C@H](C)[C@@H](O[C@@H]2O[C@H](C)C[C@H](N(C)C)[C@H]2O)[C@](C)(OC)C[C@@H](C)C(=O)[C@H](C)[C@@H](O)[C@]1(C)O [Clarithromycin]
- MIC [1, 12]: 1020 µg/mL (≈ 1370 µM)
- MIC [1, 13]: 512 µg/mL (≈ 685 µM)
- MIC [1, 14]: 64 µg/mL (≈ 85.6 µM)
- MIC ([2]; Pseudomonas aeruginosa, ATCC39324, Table 4, OligoCF-5/20 +2% G, read-out: MIC): 128 µg/mL (≈ 171 µM)
- MIC ([2]; Pseudomonas aeruginosa, ATCC39324, Table 4, OligoCF-5/20 +6% G, read-out: MIC): 32 µg/mL (≈ 42.8 µM)
- MIC ([2]; Pseudomonas aeruginosa, ATCC39324, Table 4, OligoCF-5/20 +10% G, read-out: MIC): 4 µg/mL (≈ 5.35 µM)
- MIC ([3]; Acinetobacter lwoffii, OligoCF-5/20 0G, read-out: MIC): < 0.5 µg/mL
- MIC ([3]; OligoCF-5/20 +6% G): <0.5 µg/mL
- MIC ([3]; OligoCF-5/20 +10% G): <0.5 µg/mL
- MIC [4]: 128 µg/mL (≈ 171 µM)
- MIC (V11 5702 (Wales) E. coli; Escherichia coli, OligoCF-5/20 0G, read-out: MIC): 512 µg/mL (≈ 685 µM)
- MIC (V11 5702 (Wales) E. coli; OligoCF-5/20 +2% G): 128^† μg/ml
- MIC (V5 AIM-1 E. coli; Escherichia coli, OligoCF-5/20 0G): 4 µg/mL (≈ 5.35 µM)
- MIC (V5 AIM-1 E. coli; Escherichia coli, OligoCF-5/20 +2% G): 4 µg/mL (≈ 5.35 µM)
- MIC (V5 AIM-1 E. coli; Escherichia coli, OligoCF-5/20 +6% G): ≤ 1 µg/mL
- MIC (V5 AIM-1 E. coli; Escherichia coli, OligoCF-5/20 +10% G): ≤ 1 µg/mL
- MIC [5, 13]: 128 µg/mL (≈ 171 µM)
- MIC [5, 15]: 64 µg/mL (≈ 85.6 µM)
- MIC [5, 14]: 32 µg/mL (≈ 42.8 µM)
- MIC ([6]; Burkholderia cepacia, Table 5, V23 MDR Burk cep, OligoCF-5/20 0G, read-out: MIC): 512 µg/mL (≈ 685 µM)
- MIC ([6]; Burkholderia cepacia, Table 6, V23, Experiment 2 (18-03-10), OligoCF-5/20 0G, read-out: MIC): 128 µg/mL (≈ 171 µM)
- MIC ([6]; Burkholderia cepacia, Table 6, V23, Experiment 3 (19-03-10), OligoCF-5/20 0G, read-out: MIC): 64 µg/mL (≈ 85.6 µM)
- MIC [6, 16]: 128^† μg/ml
- MIC [6, 17]: 32^† μg/ml
- MIC ([6]; Table 6, V23, Experiment 1 (18-03-10), OligoCF-5/20 +6% G): 128^† μg/ml
- MIC ([6]; Table 6, V23, Experiment 1 (18-03-10), OligoCF-5/20 +10% G): 128^† μg/ml
- MIC ([6]; Table 6, V23, Experiment 2 (18-03-10), OligoCF-5/20 +2% G): 128 µg/mL (≈ 171 µM)
- MIC ([6]; Table 6, V23, Experiment 2 (18-03-10), OligoCF-5/20 +6% G): 32^† μg/ml
- MIC ([6]; Table 6, V23, Experiment 2 (18-03-10), OligoCF-5/20 +10% G): 16^† μg/ml
- MIC ([6]; Table 6, V23, Experiment 3 (19-03-10), OligoCF-5/20 +2% G): 512^‡ μg/ml
- MIC ([6]; Table 6, V23, Experiment 3 (19-03-10), OligoCF-5/20 +6% G): 512^‡ μg/ml
- MIC ([6]; Table 6, V23, Experiment 3 (19-03-10), OligoCF-5/20 +10% G): 512‡ μg/ml
- MIC ([7]; Pseudomonas aeruginosa, ATCC15692, Table 4, OligoCF-5/20 +2% G, read-out: MIC): 128 µg/mL (≈ 171 µM)
- MIC ([7]; Pseudomonas aeruginosa, ATCC15692, Table 4, OligoCF-5/20 +6% G, read-out: MIC): 64 µg/mL (≈ 85.6 µM)
- MIC ([7]; Pseudomonas aeruginosa, ATCC15692, Table 4, OligoCF-5/20 +10% G, read-out: MIC): 32 µg/mL (≈ 42.8 µM)
- MIC [8, 12]: 512 µg/mL (≈ 685 µM)
- MIC [8, 15]: 128 µg/mL (≈ 171 µM)
- MIC [8, 14]: 32 µg/mL (≈ 42.8 µM)
- MIC ([9]; Klebsiella pneumoniae, OligoCF-5/20 0G, read-out: MIC): 512 µg/mL (≈ 685 µM)
- MIC ([9]; OligoCF-5/20 +10% G): 512 µg/mL (≈ 685 µM)
- MIC [10, 18]: 8 µg/mL (≈ 10.7 µM)
- MIC ([10]; Acinetobacter baumannii, OligoCF-5/20 +2% G, read-out: MIC): 4 µg/mL (≈ 5.35 µM)
- MIC ([10]; Acinetobacter baumannii, OligoCF-5/20 +6% G, read-out: MIC): ≤ 1 µg/mL
- MIC ([10]; Acinetobacter baumannii, OligoCF-5/20 +10% G, read-out: MIC): ≤ 1 µg/mL
- MIC [11, 18]: 16 µg/mL (≈ 21.4 µM)
- MIC ([11]; OligoCF-5/20 +2% G): 4^† μg/ml
- MIC ([11]; OligoCF-5/20 +6% G): 2^† μg/ml
- MIC ([11]; OligoCF-5/20 +10% G): 1^† μg/ml

Compound: Spiramycin
- MIC (V22 6056 Acinetobacter; OligoCF-5/20 0G): <4 µg/mL
- MIC (V22 6056 Acinetobacter; OligoCF-5/20 +2% G): <4 µg/mL
- MIC (V22 6056 Acinetobacter; OligoCF-5/20 +6% G): <4 µg/mL
- MIC (V22 6056 Acinetobacter; OligoCF-5/20 +10% G): <4 µg/mL
- MIC ([1]; OligoCF-5/20 0G): >1024^† μg/ml
- MIC ([2]; Table 4, OligoCF-5/20 0G): >1024^† μg/ml
- MIC ([2]; Table 4, OligoCF-5/20 +10% G): 256^† μg/ml
- MIC ([3]; OligoCF-5/20 0G): <4 µg/mL
- MIC ([3]; OligoCF-5/20 +2% G): <4 µg/mL
- MIC ([3]; OligoCF-5/20 +6% G): <4 µg/mL
- MIC ([3]; OligoCF-5/20 +10% G): <4 µg/mL
- MIC (V11 5702 (Wales) E. coli; OligoCF-5/20 0G): 128^† μg/ml
- MIC (V11 5702 (Wales) E. coli; OligoCF-5/20 +2% G): 64^† μg/ml
- MIC (V11 5702 (Wales) E. coli; OligoCF-5/20 +6% G): 32^† μg/ml
- MIC (V11 5702 (Wales) E. coli; OligoCF-5/20 +10% G): 32^† μg/ml
- MIC (V5 AIM-1 E. coli; OligoCF-5/20 0G): 32^† μg/ml
- MIC (V5 AIM-1 E. coli; OligoCF-5/20 +2% G): 32 µg/mL
- MIC (V5 AIM-1 E. coli; OligoCF-5/20 +6% G): 16^† μg/ml
- MIC (V5 AIM-1 E. coli; OligoCF-5/20 +10% G): 8† μg/ml
- MIC ([5]; OligoCF-5/20 0G): >1024^† μg/ml
- MIC ([5]; OligoCF-5/20 +10% G): 512^† μg/ml
- MIC ([6]; Table 5, V23 MDR Burk cep, OligoCF-5/20 0G): >4096^† μg/ml
- MIC ([6]; Table 5, V23 MDR Burk cep, OligoCF-5/20 +2% G): 2048^† μg/ml
- MIC [6, 16]: 2048^† μg/ml
- MIC [6, 17]: 1024^† μg/ml
- MIC ([7]; Table 4, OligoCF-5/20 0G): >1024^† μg/ml
- MIC ([7]; Table 4, OligoCF-5/20 +10% G): 512^† μg/ml
- MIC ([8]; OligoCF-5/20 0G): >1024^† μg/ml
- MIC ([9]; OligoCF-5/20 0G): 67^† μg/ml
- MIC ([9]; OligoCF-5/20 +2% G): 64 µg/mL
- MIC ([9]; OligoCF-5/20 +6% G): 32^† μg/ml
- MIC ([9]; OligoCF-5/20 +10% G): 16† μg/ml
- MIC ([10]; OligoCF-5/20 0G): 512^† μg/ml
- MIC ([10]; OligoCF-5/20 +2% G): 64^† μg/ml
- MIC ([10]; OligoCF-5/20 +6% G): 64^† μg/ml
- MIC ([10]; OligoCF-5/20 +10% G): 32^† μg/ml
- MIC ([11]; OligoCF-5/20 0G): 256^† μg/ml
- MIC ([11]; OligoCF-5/20 +2% G): 64^† μg/ml
- MIC ([11]; OligoCF-5/20 +6% G): 32^† μg/ml
- MIC ([11]; OligoCF-5/20 +10% G): 16^† μg/ml

Source: patent publication US9801901B2, “Alginate oligomers for use in overcoming multidrug resistance in bacteria” (priority 2009, dated 2017)
